Test results from publication PMC11054132, “Neuroprotective Effects of Chemical Constituents of Leaves of Euonymus hamiltonianus Wall” (Plants, 2024).
“Also recorded” adds a separate entry of the source. Like-named read-outs stand apart in the source and are kept apart here.

Legend:
[1] = system: NO production in LPS-activated BV-2 microglial cells; test: NO production (Griess reaction) in LPS-stimulated BV-2 microglial cells; type: cell-based, mouse; conditions: for IC50: Mus musculus, BV-2, BV-2 microglial cells, pretreated 1 h, 100 ng/mL LPS (footnote 24 h; text 12 h), means ± SDs (n = 3)
Description: The anti-inflammatory effects of the fourteen compounds (1–14) isolated from E. hamiltonianus were evaluated in activated BV-2 microglial cells by the production of NO and proinflammatory cytokines. […] […] The compounds were continuously assessed to determine whether they suppressed the expression of iNOS and COX-2 in LPS-stimulated BV-2 microglial cells. The cells were stimulated with LPS in the presence of these compounds at various concentrations, and the expression levels of iNOS and COX-2 were determined by Western blotting. […] Thus, compound 3 may be considered a potential anti-inflammatory agent.
For the Aβ-Hela-APPsw model, Hela cells were stably transfected with an APP carrying the Swedish mutation (APPsw) using BioT (Bioland Scientific LLC, Paramount, CA, USA) according to the manufacturer’s instructions, which was provided by Prof. Tae-Wan Kim (Department of Pathology, Columbia University of Medical Center, New York, NY 10032, USA). APPsw-transfected HeLa cells were grown in DMEM supplemented with 10% fetal bovine serum (FBS; Thermo Fisher Scientific, Lafayette, CA, USA), 1% penicillin/streptomycin (Thermo Fisher Scientific, Lafayette, CA, USA), 260 μg/mL Zeocin, and 400 μg/mL G418. The cells were maintained at 37 °C under a humidified atmosphere of 5% CO2. The stock sample solution was dissolved in DMSO and kept at −20 °C and diluted to the final concentration in fresh medium before each experiment. […] The EZ-Cytox kit (DAEILLAB, Cheongwon, Republic of Korea) was applied to detect the cell viability, following the manufacturer’s instructions, and measurements were taken by a microplate reader (BIO-TEK® Dower-Wave; BioTek, Winooski, VT, USA) under absorbance at 450 nm. The results were presented as the percentage of MTT reduction, compared with the control group as 100%. For the LPS-induced microglia model, the BV-2 mouse microglia cell line was provided by Prof. Lee Sung Jung’s research team in the College of Medicine, Seoul National University, and was cultured in DMEM-F12 with 5% FBS and 1% penicillin/streptomycin at 37 °C under a humidified atmosphere containing 5% CO2. And the cell viability assay was performed using the Aβ-Hela-APPsw model.
[…] The media were collected and centrifuged at 13,000 rpm for the removal of dead cells. The supernatants were collected and mixed with an equal volume (50 μL) of Griess reagents (1% sulfanilamide and N-(1-naphthyl) ethylenediamine dihydrochloride in 2.5% H3PO4) for 5 min at room temperature, and the Nitric Oxide concentration was measured at 540 nm using a microplate reader and compared with the sodium nitrite standard curve.

[2] = Cytotoxicity (MTT assay) in BV-2 microglial cells; type: cell-based; conditions: mouse
[3] = Storage stability of isolated compound by LC-MS; type: physicochemical; conditions: stored 27 days (compound 2) or a significant length of time (compound 1), dried powder and DMSO solution
Description: In this study, qualitative profile analysis was performed on the 30% EtOH crude extract of the leaves of E. hamiltonianus using HPLC. The isolated phytochemicals, 1–14, were used as standards and compared to the crude extract profile represented by a high-performance liquid chromatogram (Figure 3). […] With comparative UV area normalization, compound 2 was confirmed as a pure compound initially when isolated (Figure S3.8). […] For reconfirmation, LC-MS analyses of both the dried powdered form of the compound when isolated and the compound in DMSO solution were performed (Figure S3.9), both sets of results showing signs of degradation. Compound 2 was degraded into three separate peaks, and the original compound 2 indicated by m/z 759.2 was verified by LC-MS analysis, and the peaks of 2a and 2b were indicated by m/z 465.1 and 627, respectively. […] Due to the close resemblance of compound 2 to compound 1, it was investigated in the same manner after a significant length of time.

[4] = system: Aβ42 production in APPsw-transfected HeLa cells; test: Aβ42 production (ELISA kit) in APPsw-transfected HeLa cells; type: cell-based; conditions: for IC50: 8 h, APPsw-transfected HeLa cells, means ± SDs (n = 3)
Description: APPsw-transfected HeLa cells were cultured with the isolated compounds or DMSO in Dulbecco’s modified Eagle medium (DMEM, Welgene, Gyeongsan-si, Republic of Korea) for 8 h, and then the cell culture supernatants were collected for the following analyses. For the detection of Aβ secretion, kits for Aβ42 (KHB3442) and Aβ40 (KHB3482) were purchased from the Invitrogen Company and used according to the supplier’s instructions.
For the Aβ-Hela-APPsw model, Hela cells were stably transfected with an APP carrying the Swedish mutation (APPsw) using BioT (Bioland Scientific LLC, Paramount, CA, USA) according to the manufacturer’s instructions, which was provided by Prof. Tae-Wan Kim (Department of Pathology, Columbia University of Medical Center, New York, NY 10032, USA). APPsw-transfected HeLa cells were grown in DMEM supplemented with 10% fetal bovine serum (FBS; Thermo Fisher Scientific, Lafayette, CA, USA), 1% penicillin/streptomycin (Thermo Fisher Scientific, Lafayette, CA, USA), 260 μg/mL Zeocin, and 400 μg/mL G418. The cells were maintained at 37 °C under a humidified atmosphere of 5% CO2. The stock sample solution was dissolved in DMSO and kept at −20 °C and diluted to the final concentration in fresh medium before each experiment. For the cell viability assay, Hela cells were cultured in 96-well plates for 24 h and then various concentrations of comp 27 (0–10 μM) were treated for 12 h. The EZ-Cytox kit (DAEILLAB, Cheongwon, Republic of Korea) was applied to detect the cell viability, following the manufacturer’s instructions, and measurements were taken by a microplate reader (BIO-TEK® Dower-Wave; BioTek, Winooski, VT, USA) under absorbance at 450 nm. The results were presented as the percentage of MTT reduction, compared with the control group as 100%. For the LPS-induced microglia model, the BV-2 mouse microglia cell line was provided by Prof. Lee Sung Jung’s research team in the College of Medicine, Seoul National University, and was cultured in DMEM-F12 with 5% FBS and 1% penicillin/streptomycin at 37 °C under a humidified atmosphere containing 5% CO2. And the cell viability assay was performed using the Aβ-Hela-APPsw model.

iNOS = test: Western blot of LPS-induced iNOS expression in BV-2 microglial cells; type: cell-based, mouse; conditions: LPS-stimulated BV-2 microglial cells, various concentrations (1.0, 2.0, 4.0 µM)
Description: The anti-inflammatory effects of the fourteen compounds (1–14) isolated from E. hamiltonianus were evaluated in activated BV-2 microglial cells by the production of NO and proinflammatory cytokines. BV-2 microglial cells were stimulated with 0.1 µg/mL LPS for 12 h in the presence of the compounds at various concentrations, and the levels of NO in the culture supernatants were measured using Griess reactions. […] The compounds were continuously assessed to determine whether they suppressed the expression of iNOS and COX-2 in LPS-stimulated BV-2 microglial cells. The cells were stimulated with LPS in the presence of these compounds at various concentrations, and the expression levels of iNOS and COX-2 were determined by Western blotting. […] Thus, compound 3 may be considered a potential anti-inflammatory agent.
The total protein samples (10 μg) were loaded in sodium dodecyl sulfate polyacrylamide gel electrophoresis (SDS–PAGE) gels with 10% acrylamide/bis and transferred to polyvinylidene difluoride membranes (Millipore, Burlington, MA, USA). Then, the membranes were blocked with 5% silky milk dissolved in TBST (Tris Buffered saline Tween) for 1 h under room temperature and incubated overnight at 4 °C with specific primary antibodies (1:1000). After being washed with TBST, the membranes were incubated with secondary HRP-conjugated IgG (1:2000) at room temperature for 1 h and visualized using enhanced chemiluminescence (ECL) reagents (Thermo Fisher Scientific, Lafayette, CA, USA). Densitometry analysis of the bands was performed with the fusion solo system (Vilber, Paris, France). The band densities were determined as the intensities of protein by TotalLab TL120 software v2009 (TotalLab, Newcastle, UK).

[5] = BV-2 microglial cells, MTT assay, read-out: IC50 Value (µM) Cytotoxicity

Structure (SMILES) | IC50 [1] [µM] | IC50 at 12 h [2, 5] [µM] | IC50 ([4]; Homo sapiens, HeLa) [µM] | also measured
COc1cc(-c2oc3cc(O[C@@H]4O[C@H](CO)[C@@H](O)[C@H](O)[C@H]4O)cc(O)c3c(=O)c2O[C@@H]2O[C@H](CO)[C@@H](O)[C@H](O)[C@H]2O[C@@H]2OC[C@@H](O)[C@H](O)[C@H]2O)ccc1O [Compound 1, isorhamnet-in-3-O-(2″-O-(β-D-xylopyranosyl)-β-D-glucopyranoside)-7-O-β-D-glucopyranoside] | > 100 | > 100 | – | Degradation on storage (in words) [3]: did not show any sign of degradation
O=c1c(O[C@@H]2O[C@H](CO)[C@@H](O)[C@H](O)[C@H]2O[C@@H]2OC[C@@H](O)[C@H](O)[C@H]2O)c(-c2ccc(O)c(O)c2)oc2cc(O[C@@H]3O[C@H](CO)[C@@H](O)[C@H](O)[C@H]3O)cc(O)c12 [Compound 2, quercetin-3-O-(2″-O-(β-D-xylopyranosyl)-β-D-glucopyranoside)-7-O-β-D-glucopyranoside] | > 100 | > 100 | > 100 | Degradation on storage (in words) [3]: showed signs of degradation
COc1cc(-c2oc3cc(O[C@@H]4O[C@H](CO)[C@@H](O)[C@H](O)[C@H]4O)cc(O)c3c(=O)c2O[C@@H]2O[C@H](CO)[C@@H](O)[C@H](O)[C@H]2O)ccc1O [Compound 5, isorhamnetin-3,7-di-O-β-D-glucopyranoside] | > 100 | > 100 | – | –
O=c1c(O[C@@H]2O[C@H](CO)[C@@H](O)[C@H](O)[C@H]2O[C@@H]2OC[C@@H](O)[C@H](O)[C@H]2O)c(-c2ccc(O)c(O)c2)oc2cc(O)cc(O)c12 [Compound 6, quercetin-3-O-sambubioside] | > 100 | > 100 | > 100 | –
O=c1c(O[C@@H]2O[C@H](CO)[C@@H](O)[C@H](O)[C@H]2O)c(-c2ccc(O)c(O)c2)oc2cc(O)cc(O)c12 [Compound 7, isoquercetin] | > 100 | > 100 | – | –
O=c1c(O[C@@H]2O[C@H](CO)[C@@H](O)[C@H](O)[C@H]2O)c(-c2ccc(O)c(O[C@@H]3O[C@H](CO)[C@@H](O)[C@H](O)[C@H]3O)c2)oc2cc(O)cc(O)c12 [Compound 8, quercetin-3,3′-di-O-β-D-glucopyranoside] | > 100 | > 100 | – | –
COc1cc([C@H]2OC[C@H]3[C@@H]2CO[C@@H]3c2cc(OC)c(O[C@@H]3O[C@H](CO)[C@@H](O)[C@H](O)[C@H]3O)c(OC)c2)cc(OC)c1O[C@@H]1O[C@H](CO)[C@@H](O)[C@H](O)[C@H]1O [Compound 9, liriodendrin] | – | – | – | IC50 at 12 h [2]: > 100 µM
CCCCOC(=O)C(CC(=O)O)OC(=O)C=Cc1ccc(O)cc1 (stereo not shown) [Compound 10, p-coumaroylmalic acid 1-butyl ester] | > 100 | > 100 | – | –
O=c1occc2c(O)cc(O)cc12 [Compound 11, 5,7-dihydroxyisocoumarin] | > 100 | > 100 | – | –
O=C(O)/C=C/c1ccc(O)c(O[C@@H]2O[C@H](CO)[C@@H](O)[C@H](O)[C@H]2O)c1 [Compound 12, caffeic acid trans-3-O-β-D-glucopyranoside] | > 100 | > 100 | > 100 | –
COC(=O)/C=C/c1ccc(O)c(O[C@@H]2O[C@H](CO)[C@@H](O)[C@H](O)[C@H]2O)c1 [Compound 13, methyl trans-3-O-(β-D-glucopyranosyl) caffeate] | > 100 | > 100 | 53.1 to 65.4 | IC50 [4]: 65.4 ± 6.71 µM; Inhibitory effect on Aβ production (in words) ([4]; Hela-swAPP cells): reduced Aβ levels
OC[C@H]1O[C@@H](OC[C@H]2O[C@@H](OCc3ccccc3)[C@H](O)[C@@H](O)[C@@H]2O)[C@H](O)[C@@H](O)[C@@H]1O [Compound 14, benzyl gentiobioside] | 17.4 ± 2.77 | > 100 | 53.1 to 65.4 | Inhibitory effect on NO production (in words) ([1]; LPS-stimulated BV-2 microglial cells): effectively downregulated; also recorded: good inhibitory effects; LPS-induced iNOS protein expression (in words) (iNOS): suppressed; also recorded: effectively downregulated
C[C@@H]1C[C@H]2[C@@H]3CCC4=CC(=O)C=C[C@]4(C)[C@@]3(F)[C@@H](O)C[C@]2(C)[C@@]1(O)C(=O)CO [Dexamethasone, reference compound] | 1.24 ± 0.104 | > 100 | – | –
COc1cc2c(OC)c3c(c(-c4ccc5c(c4)OCO5)c2cc1OC)C(=O)OC3 [Justicidine A, reference compound] | – | – | – | IC50 [4]: 1 ± 0.043 µM
